{
  "source": "paper PMC1192819",
  "about": "“Molecular cloning and characterization of a nuclear androgen receptor activated by 11-ketotestosterone” (Reproductive biology and endocrinology : RB&E, 2005)",
  "key": {"[1]": {"molecular_target": "recombinant stickleback ARβ2 (Gasterosteus aculeatus, UniProt Q801Z2)", "sequence (Q801Z2 1-735)": "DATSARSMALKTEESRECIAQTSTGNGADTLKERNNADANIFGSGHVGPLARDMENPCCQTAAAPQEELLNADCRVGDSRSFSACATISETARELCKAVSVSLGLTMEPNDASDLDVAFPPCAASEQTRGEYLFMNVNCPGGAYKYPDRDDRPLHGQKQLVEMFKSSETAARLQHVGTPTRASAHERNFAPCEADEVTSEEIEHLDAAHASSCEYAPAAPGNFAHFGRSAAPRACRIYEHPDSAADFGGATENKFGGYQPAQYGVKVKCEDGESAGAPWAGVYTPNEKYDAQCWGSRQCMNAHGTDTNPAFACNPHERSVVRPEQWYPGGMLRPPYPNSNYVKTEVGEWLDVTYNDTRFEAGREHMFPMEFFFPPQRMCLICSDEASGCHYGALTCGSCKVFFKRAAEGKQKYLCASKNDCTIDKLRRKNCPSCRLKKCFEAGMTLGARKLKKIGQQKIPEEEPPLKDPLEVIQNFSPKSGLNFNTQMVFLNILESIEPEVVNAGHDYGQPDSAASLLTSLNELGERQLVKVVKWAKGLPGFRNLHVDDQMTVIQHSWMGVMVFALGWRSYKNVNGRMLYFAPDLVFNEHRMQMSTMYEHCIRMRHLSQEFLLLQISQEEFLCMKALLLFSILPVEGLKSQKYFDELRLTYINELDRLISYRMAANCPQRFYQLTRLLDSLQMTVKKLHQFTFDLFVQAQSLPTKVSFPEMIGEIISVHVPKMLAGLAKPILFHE", "conditions": "recombinant ARβ2, reticulocyte extract", "experimental": "The excised AR pBK CMV clones were digested with XbaI and EcoRI and the inserts were gel purified prior to ligation into the pCMV-TNT vector (Promega) between XbaI and EcoRI. […] AR was expressed by introducing the pCMV-TNT into the TNT coupled reticulocyte lysate system (Promega) according to the manufacturer's instructions. The size of the expressed products was determined by addition of S^35-methionin to the reticulocyte lysate system. The obtained protein suspension was analyzed on a denaturing 8% SDS PAGE and the sizes were determined using prestained SDS-PAGE broad range protein molecular weight standard (Bio-Rad) and a control luciferase protein of 62 kDa included in the reticulocyte lysate system (Promega). […]\nAliquots (250 μl) of the nuclear or cytosolic preparations were added to each tube, the tubes were vortexed and incubated over night at 4°C. […] The supernatants were decanted into 7 ml scintillation vials, 5 ml of standard scintillation cocktail was added and the radioactivity in each sample was measured in a liquid scintillation counter (Beckman LS 6000SC, Beckman Instruments, Fullerton, CA). […] 250 μl of the supernatant was transferred into 5 ml scintillation vials and 4 ml of standard scintillation cocktail was added before the radioactivity in each sample was measured in a liquid scintillation counter (Wallac 1409, Wallac Oy, Turku, Finland)."}, "[2]": {"molecular_target": "AR in stickleback kidney cytosolic fraction", "test": "Saturation and Scatchard analysis, kidney cytosolic fraction", "type": "binding, three-spined stickleback (Gasterosteus aculeatus)", "conditions": "overnight 4°C", "experimental": "Aliquots (250 μl) of the nuclear or cytosolic preparations were added to each tube, the tubes were vortexed and incubated over night at 4°C. To stop the binding reaction, 250 μl DCC was added to each tube. The tubes were vortexed and the suspensions were incubated for 5 min at 4°C, before spinning at 3,000 × g at 4°C for 5 min. The supernatants were decanted into 7 ml scintillation vials, 5 ml of standard scintillation cocktail was added and the radioactivity in each sample was measured in a liquid scintillation counter (Beckman LS 6000SC, Beckman Instruments, Fullerton, CA). The procedure used for the expressed recombinant ARβ2 was modified as follows. […] The expressed proteins were diluted 1:100 and aliquots (100 μl) were added to each reaction tube. The tubes were vortexed and incubated over night at 4°C. To stop the binding reaction, 200 μl DCC was added to each tube. The tubes were vortexed and the suspension were incubated for 5 min at 4°C, before spinning at 3,000 × g at 4°C for 5 min. 250 μl of the supernatant was transferred into 5 ml scintillation vials and 4 ml of standard scintillation cocktail was added before the radioactivity in each sample was measured in a liquid scintillation counter (Wallac 1409, Wallac Oy, Turku, Finland)."}, "[3]": {"system": "AR in three-spined stickleback kidney cytosolic extracts", "conditions": "4°C", "experimental": "The reaction was terminated at different time-points ranging between 1 min and 24 h. The specific binding at each time-point was determined as described above."}},
  "data": [
    {"smiles": "C[C@]12CCC(=O)C[C@@H]1CC[C@@H]1[C@@H]2CC[C@]2(C)[C@@H](O)CC[C@@H]12", "note": "[[^3H]-DHT]", "values": [
      {"measurement": "Bmax", "setting": "[1]", "value": "0.324 ± 0.04", "unit": "pmol/mg protein"},
      {"measurement": "Kd", "setting": "[2]", "value": "18.7 ± 3.21", "unit": "nM"},
      {"measurement": "association t1/2", "setting": "[3]; 4 nM tracer", "value": 3.3, "unit": "min"},
      {"measurement": "time to reach binding equilibrium", "setting": "[3]; 4 nM tracer", "value": 20, "unit": "min"},
      {"measurement": "dissociation t1/2", "setting": "[3]; 100-fold excess unlabelled DHT", "value": 80, "unit": "min"},
      {"measurement": "time to complete dissociation", "setting": "[3]; 100-fold excess unlabelled DHT", "value": "≤ 8", "unit": "h"}
    ]}
  ]
}
